In brackets after ≈: the same amount, converted by molar mass.
Experiments:
E. coli JT 39 = assay: Synergistic activity in vitro with amoxycillin; type: cell-based, Escherichia coli; conditions: for Synergistic activity in vitro: E. coli JT 39
Staph. aureus Russell = assay: Synergistic activity in vitro with amoxycillin; type: cell-based, Staphylococcus aureus; parameters: Synergistic activity in vitro: unit not given beside the values; conditions: for Synergistic activity in vitro: Staph. aureus Russell
Klebsiella aerogenes E70 = assay: Synergistic activity in vitro with amoxycillin; type: cell-based; parameters: Synergistic activity in vitro: unit not given beside the values; conditions: for Synergistic activity in vitro: Klebsiella aerogenes E70
S. aureus Russell = assay: Antibacterial activity of quaternary amine derivatives alone; type: cell-based; conditions: Staphylococcus aureus, compound alone
K. aerogenes E70 = assay: as above; type: cell-based; conditions: Klebsiella aerogenes, compound alone
E. coli JT39 = assay: as above; type: cell-based; conditions: Escherichia coli, compound alone
[1] = amoxycillin with inhibitor, Inhibitor Conc 1
[2] = amoxycillin with inhibitor, Inhibitor Conc 5
[3] = amoxycillin alone, no inhibitor

Compound	Synergistic activity in vitro (E. coli JT 39; [1])	Synergistic activity in vitro (E. coli JT 39; [2])	Synergistic activity in vitro (Staph. aureus Russell; [1])	Synergistic activity in vitro (Klebsiella aerogenes E70; [1])	Synergistic activity in vitro (Klebsiella aerogenes E70; [2])	MIC (S. aureus Russell) [µg/mL]	MIC (K. aerogenes E70) [µg/mL]	MIC (E. coli JT39) [µg/mL]	other results
C[N+](C)(C/C=C1\O[C@@H]2CC(=O)N2[C@H]1C(=O)[O-])Cc1ccccc1 [Example No 1, 9-(N-Benzyl-N,N-dimethyl)ammonio-9-deoxyclavulanate]	8	2	0.62	6.2	3.1	–	–	–	Synergistic activity in vitro (Staph. aureus Russell; [2]): 0.08
CC[N+](C)(C)C/C=C1\O[C@@H]2CC(=O)N2[C@H]1C(=O)[O-] [Example No. 5, 9-(N,N-dimethyl-N-ethyl)ammonio-9-deoxyclavulanate]	–	–	–	–	–	31 (≈ 122 µM)	250 (≈ 983 µM)	62 (≈ 244 µM)	–
CC[N+](CC)(CC)C/C=C1\O[C@@H]2CC(=O)N2[C@H]1C(=O)[O-] [Example No. 6, 9-N,N,N-triethylammonio-9-deoxyclavulanate]	–	–	–	–	–	31 (≈ 110 µM)	500 (≈ 1770 µM)	125 (≈ 443 µM)	–
CC1(C)S[C@@H]2[C@H](NC(=O)[C@H](N)c3ccc(O)cc3)C(=O)N2[C@H]1C(=O)O [Amoxycillin, reference compound]	–	–	–	–	–	–	–	–	MIC µg/ml amoxycillin (E. coli JT 39; E. coli JT39, amoxycillin alone): 2000 µg/mL; Synergistic activity in vitro (E. coli JT 39; [3]): ≥2000; MIC µg/ml amoxycillin (Staph. aureus Russell; S. aureus Russell, amoxycillin alone): 500 µg/mL; Synergistic activity in vitro (Staph. aureus Russell; [3]): 1000; MIC µg/ml amoxycillin (Klebsiella aerogenes E70; K. aerogenes E70, amoxycillin alone): 1000 µg/mL; Synergistic activity in vitro (Klebsiella aerogenes E70; [3]): 500
C[N+](C)(C)C/C=C1\O[C@@H]2CC(=O)N2[C@H]1C(=O)[O-] [Example No. 7, 9-N,N,N,-trimethylammonio-9-deoxyclavulanate]	–	–	–	–	–	4 (≈ 16.6 µM)	62.5 (≈ 260 µM)	16 (≈ 66.6 µM)	–
CC[N+](C)(C/C=C1\O[C@@H]2CC(=O)N2[C@H]1C(=O)[O-])Cc1ccccc1 (some centres unmarked) [Example No 2, 9-(N-Benzyl-N-ethvl-N-methyl)ammonio-9-deoxyclavulanate]	16	4	0.16	12.5	3.1	–	–	–	–

Reference: patent EP0062407A1, “Therapeutic compounds containing beta-lactams” (BEECHAM GROUP PLC, priority 1981, dated 1982)
